Source: US20070299109A1, “Dimeric Compounds Of Piperidine, Piperazine Or Morpholine Or Their 7-Membered Analogs Suitable For The Treatment Of Neurodegenerative Disorders” (priority 2004, published 2007)

The compounds below were run on chicken dorsal root ganglion neurons (assay: Neuronal viability assay (calcein-AM) in primary culture of chicken dorsal root ganglion neurons). Conditions: Gallus gallus, DRG neuron, 48 h; survival of chick DRG neurons after two days of incubation; 0% = no neurotrophic factor, 100% = 10 ng/ml NGF; read-out: [C1] DRG assay SCORE (pIC50 value scored) (converted).
Assay type: cell-based, White Leghorn chick embryos
Source text: This assay is based on a fluorimetric Calcein-AM measurement and addresses the functional response of neurons as a quantitative measure of survival.
Dorsal root ganglia were dissected from White Leghorn chick embryos at embryonic day 10 as described previously (Skaper S. D. and Varon S. (1986) Brain Research 389, 39-46). The ganglia were trypsinised and dissociated by mild trituration in a HBSS buffer supplemented with 0.6% glucose and 0.08% trypsin. To remove non-neuronal cells by differential attachment to culture plastic, the ganglionic cell suspension was lo diluted to 2.5×10^5 cells/ml and seeded on tissue culture plastic dishes at 10 ml per 100 mm dish. After 2 h preplating, unattached neurons were collected and resuspended into Basal Eagle Medium containing 10% FCS. To remove cell aggregates, the cell suspension was passed through a nylon mesh (50 μM) pore diameter. Neuron-enriched cell suspension was plated at 5×10^4 cells/ml into poly-L-ornithine (100 μg/ml) and laminine (1 μg/ml) coated multiwell 96 plates. Compounds were dissolved in dimethyl sulfoxide and kept as a stock at −20° C. NGF and compounds were diluted in the culture medium and added to the cells immediately after plating. The final concentration of dimethyl sulfoxide in the test medium was 0.1%. After two days of incubation, neuronal viability was assessed with calcein-AM.
Neuronal viability assay using calcein AM was performed as previously described (Bozyczko-Coyne D., McKenna B. W., Connors T. J., and Neff N. T. (1993) Journal of Neuroscience Methods 50, 205-216). For the assay, calcein-AM was diluted in PBS to the final concentration (1 μM). […] Following the incubation, reading was done in a Cytofluor II at an excitation wavelength of 485 nm and an emission wavelength of 530 nm. […]
The drugs to be tested were taken from a stock solution and tested at a final concentration ranging from […] to 3.10^−9M. From the thus obtained dose response curves, the pIC50 value was calculated and scored as follows; Score 1=pIC50 value<6, Score 2=pIC50 value in the range of 6 to 8, Score 3=pIC50 value>8.

Structure (SMILES)	IC50 [nM]
CN(c1nc2ccc(F)cc2s1)C1CCN(C(=O)CCCCCCCC(=O)N2CCC(N(C)c3nc4ccc(F)cc4s3)CC2)CC1 [Compound 5]	10 to 1000
CN(c1nc2ccccc2s1)C1CCN(C(=O)NC2CCC(CC3CCC(NC(=O)N4CCC(N(C)c5nc6ccccc6s5)CC4)CC3)CC2)CC1 (stereo not drawn) [Compound 9]	10 to 1000
c1ccc2c(c1)CCN2C1CCN(CCCN2CCC(N3CCc4ccccc43)CC2)CC1 [Compound 47]	> 1000
